From patent US10947323B2, “Capped cyclodextrin-hydrophobic moiety conjugate, cyclodextrin supramolecular polymer, and cyclodextrin-siRNA complex and method of synthesis thereof” (SORBONNE UNIVERSITE, priority 2016, dated 2021)

What was measured:
[1] = tested on: firefly luciferase GL3 expression in HEK293 cells; experiment: KnockDown test of the luciferase GL3 gene (siRNA transfection, One-Glo luminescence); format: cell-based, human; details: siRNA complexes, N/P ratio of 1190, 24 hours, untransfected cells = 100% expression
Protocol: The cell line to be transfected is a cell line of human embryonic kidney 293 cells (HEK293). This cell line is cultivated with a DMEM medium to which SVF (10%) is added.
The cultures are made in an incubator at 37° C., 5% of CO2. The cell line HEK293 express constitutively the firefly luciferase GL3.
The HEK293 cells are deposited in a 96 wells plaque 1·10^3 cell/wells.
The siRNA which is used is the luciferase GL3 siRNA.
Transfection of cell line HEK293 with the siRNA directed against the firefly luciferase GL3 with as vector of transfection the […] obtained in example 1 or Lipofectamine 2000 (used as a positive reference of transfection) has been carried out.
The efficacy of transfection on the cells has been evaluated by a method of luminescence.
One day before the transfection, the HEK293 cells are deposited in a 96 wells plaque: 1·10^3 cell/wells treated in 200 μL of DMEM, SVF 10%, without antibiotics, in order that the cells reach a 30-50% of confluence the day after.
The day of the transfection, the 200 μL/wells of medium are withdrawn. […]
This latter is incubated at 37° C. during 24 hours until the analysis by luminescence of the KD of the gene of the luciferase (Kit One-Glo luciferase assay (Promega)).
For this aim, 100 μL/wells of reactants are added to the cells before the plaque be analyzed by luminescence.

HEK293 cells = experiment: Toxicity test (cell viability, ATP activity, CellTiter Glo 2.0); format: cell-based, human; details: over the range of N/P ratios, 24 hours
Protocol: In order to evaluate the toxicity of compound 11 of example 1 on HEK293 cells, the kit CellTiter Glo 2.0 (Promega) has been used.
One day before the transfection, the cells HEK293 are deposited in a 96-wells plaque: 1·10^3 cell/wells and then treated with 200 μL of DMEM, SVF 10%, without antibiotics, in order that the cells reach a 30-50% of confluence the day after.
The day of the transfection, the cells are incubated with the complex siRNA-cyclodextrin conjugate obtained in example 1 and Lipofectamine 2000.siRNA at 37° C. during 24 hours until analysis of the cells viability (ATP activity) using a kit CellTiter Glo 2.0.
For this aim 100 μL/wells of CellTiter Glo 2.0. reactant are added to the cells before the plaque be analyzed by luminescence.

siRNA = experiment: Agarose gel electrophoresis of siRNA complex formation at increasing N/P ratios; format: binding; details: at low N/P ratios; 100 V, 40 min
Protocol: In order to characterize the formation of complexes between the siRNA and the compound 11 of the invention obtained in example 1, an electrophorese technique on agarose gel has been used.
The molecule of siRNA and of compound of example 1 have been migrated according to N/P previously chosen.
A solution of 17 μL of siRNA-compound of example 1 is prepared in sterile water and incubated during 20 minutes at ambient temperature.
Then, this solution is deposited on the gel with 3 μL of bromophenol blue before launching the migration: 100 V, 40 min.
Third, thanks to the experiment with agarose electrophoresis gel, it has been shown that capped cyclodextrine-adamantane conjugate are able to interact and to complex siRNA. Indeed, capped cyclodextrine-adamantane complex formation was evaluated at increasing N/P ratios using agarose gel electrophoresis. (FIG. 3)
N/P ratio corresponds to the amount of protonated aminated residue of the cationic species divided by the amount of phosphate residues coming from the nucleic acids.^14 This ratio enables to compare the efficiency of a cationic compound to be complexed with nucleic acids. ^14 Pharmaceutics. 2011, 3, 125-140

OCC1O[C@@H]2O[C@@H]3C(CO)O[C@H](O[C@@H]4C5CN(CCC67CC8CC(CC(C8)C6)C7)CCCCNCC6O[C@H](O[C@@H]7C(CO)O[C@H](O[C@H]1C(O)C2O)C(O)C7O)C(O)C(O)[C@@H]6O[C@H]1OC(CO)[C@@H](O[C@H]2OC(CO)[C@@H](O[C@@H](O5)C(O)C4O)C(O)C2O)C(O)C1O)C(O)C3O (stereo partly drawn) [compose 11]
knockdown of GL3 luciferase expression [1]: ≤ 50%
cytotoxicity of transfection with siRNA complexes (HEK293 cells): no cytotoxicity
binding (complexation) of siRNA, no migration of siRNA in gel (siRNA): complete binding of siRNA
